SMILES strings stand for the structures.

Here are results for twelve compounds from ChEMBL document CHEMBL1151996, “Structure-activity relationships of anti-HIV-1 N-alkoxy- and N-allyloxy-benzimidazoles” (Bioorg Med Chem Lett, 1997).

The test system of one test is C8166. The test is described as follows: Compound was evaluated for its cytotoxicity against C8166 cell line. Type of test: functional. The conditions noted are these: Homo sapiens, read-out: TC50 (the source's name).
On to `CC(C)=CCOn1c(C=C(C)C)nc2c(C)cccc21`, for which the CC50 is 50 µM.
Regarding `COc1ccc2nc(C=C(C)C)n(OCC=C(C)C)c2c1`, the CC50 is 80 µM.
Turning to `CC(C)=CCN1Cc2cc(Cl)cc3[nH]c(=S)n(c23)C[C@@H]1C`, the CC50 amounted to 62 µM.
Turning to `CC(C)=CCOn1c(C=C(C)C)nc2ccc(C)cc21`, the CC50 is 50 µM.
Still for that read-out and setting: the result for `C=CCOn1c(C=C)nc2ccc(C)cc21` reads 20 µM; that for `C=CCOn1c(C=C)nc2c(C)cccc21`, 16 µM; that for `C=CCOn1c(C=C)nc2ccc(OC)cc21`, 80 µM.
In the case of `Cc1cn([C@H]2C[C@H](N=[N+]=[N-])[C@@H](CO)O2)c(=O)[nH]c1=O` [ZIDOVUDINE], the CC50 is above 1000 µM.

The test system of a further test is C8166. The test can be described thus: Tested against HIV-1 […] for Inhibition of viral replication by determining reduction of syncytia formation and antigen gp120 in C8166 cells, estimated by ELISA. Type of test: functional, cell-based. The note with it: Homo sapiens.
The term EC50 denotes the midpoint of the concentration-response curve. Regarding `CCCCOn1c(CCC)nc2c(C)cccc21`, the EC50 is 0.5 µM.
Turning to `CC(C)=CCOn1c(C=C(C)C)nc2c(C)cccc21`, the EC50 is 10 µM.
For the compound `CCOn1c(C)nc2c(C)cccc21`, the EC50 is 8 µM.
For the compound `CCCCCOn1c(CCCC)nc2c(C)cccc21`, the EC50 was 8 µM.
Turning to `CCCCCCCOn1c(CCCCCC)nc2c(C)cccc21`, the EC50 was 40 µM.
As to `COc1ccc2nc(C=C(C)C)n(OCC=C(C)C)c2c1`, the EC50 is 16 µM.
As to `CC(C)=CCOn1c(C=C(C)C)nc2ccc(C)cc21`, the EC50 was 10 µM.
Regarding `C=CCOn1c(C=C)nc2ccc(C)cc21`, the EC50 is 16 µM.
In the case of `C=CCOn1c(C=C)nc2c(C)cccc21`, the EC50 is 16 µM.
`C=CCOn1c(C=C)nc2ccc(OC)cc21`: the EC50 was 80 µM.
